Measurements: patent US5599974A, “Aldehydic agents for allosteric modification of hemoglobin” (Center for Innovative Technology, priority 1994, dated 1997)

How the values were obtained:
human hemoglobin (HbA) = molecular target: T1, human hemoglobin (HbA) (Homo sapiens, UniProt P69905); test: Oxygen equilibrium studies of hemoglobin solutions (Hem-O-Scan oxygen dissociation curves); format: biochemical; settings: hemoglobin solution; for P50 D (aver.) / ΔP50 (P50 D - P50 C): Hb 2.7 mM; for P50 D (aver.): compound 10 mM (approx. 4:1), 50 mM HEPES pH 7.4, incubated at 4° C. for two hours; for ΔP50 (P50 D - P50 C): compound 10 mM, 50 mM HEPES pH 7.4, positive = right shift
T1 construct: hemoglobin solution
Source text: In blood, hemoglobin is in equilibrium between two allosteric structures. In the "T" (for tense) state, hemoglobin is de-oxygenated. In the "R" (for relaxed) state, hemoglobin is oxygenated. An oxygen equilibrium curve can be scanned using well known equipment such as the Aminco™ Hem-o-scan to evaluate the affinity and degree of cooperativity (allosteric action) of hemoglobin. In the scan, the Y-axis plots the percent of hemoglobin oxygenation and the X-axis plots the partial pressure of oxygen in millimeters of mercury (mm Hg). If a horizontal line is drawn from the 50% oxygen saturation point to the scanned curve and a vertical line is drawn from the intersection point of the horizontal line with the curve to the partial pressure X-axis, a value commonly known as the P50 is determined. This is the pressure when the hemoglobin is 50% saturated with oxygen. By comparing the P50 value for treated hemoglobin to the P50 value for untreated normal adult human hemoglobin (HbA) under physiological conditions (i.e., 37° C., pH=7.4, and partial carbon dioxide pressure of 40 mm Hg), the degree of allosteric modification can be determined. When the P50 value for treated hemoglobin is lower than for HbA, a high oxygen affinity hemoglobin is indicated and the curve is said to be "left-shifted". Conversely, when the P50 value for treated hemoglobin is higher than for HbA, a low oxygen affinity hemoglobin is indicated and the curve is said to be "right-shifted".
In the oxygen equilibrium studies, the HbA was further purified by dialysis against pH 8.6. Tris buffer (50 mM, containing 40 mg EDTA/L) to remove any residual A2 hemoglobin. The pure HbA fraction was concentrated by using a Schleicher and Schuell colloidion bag apparatus, available from Schleicher and Schuell, Inc., with HEPES buffer (50 mM, pH 7.4) as the exchange buffer. The Hb concentration was determined by using the cyanmet method. The Hb concentration at this point was usually found to be around 35 g% (approximately 5.4 mM). Less than 5% methemoglobin was noted even after several days at 4° C. Oxygen dissociation curves were recorded on an AMINCO Hem-0-Scan oxygen dissociation analyzer available from Travenol Laboratories.
All compounds were dissolved in 50 mM HEPES buffer, pH 7.4, to give 20 mM of drug solution. The Hb (5.4 mM, in HEPES, pH 7.4) and the test compounds (20 mM) were mixed in 1:1 volume ratio (50μL of Hb+50μL of compound solution) to give final concentrations of 2.7 mM and 10mM, respectively (a molar ratio of test compound to hemoglobin of approximately 4:1). A control experiment was prepared by the addition of 50 μL of Hb to 50 μL of HEPES buffer. The mixtures were incubated at 4° C. for two hours before running the oxygen dissociation curves.

HbA = molecular target: T2, HbA (Homo sapiens, UniProt P69905); test: X-ray diffraction analysis of HbA/drug complexes (difference electron-density maps); format: binding; settings: HbA tetramer/drug molar ratio 1:5 (TB17 1:10), Schiff base reduced, deoxygenated crystals
T2 construct: co-crystals with compounds
Experimental: Reaction of the drug compounds with HbA, crystallization and X-ray data collection of the HbA/drug complexes were performed according to the procedures of Wireko et al., Proc. Natl. Acad. Sci. USA, 1991, 88, 2209, which is herein incorporated by reference, with some slight modifications. Freshly prepared solutions of the synthesized compounds in potassium phosphate buffer were incubated at oxy HbA tetramer/drug molar ratios of 1:5 or 1:10 for at least 24 hours. Sodium cyanoborohydrie in phosphate buffer was added in 10- to 50-fold molar excess of HbA tetramer to reduce the Schiff's base adduct for at least 24 hours. The deoxygenated HbA/compound complexes were set up for crystallizations following the procedures described in Perutz et al., Crys. Growth, 1968, 2, 54, which is herein incorporated by reference, with some slight modifications. X-ray quality crystals for all complexes were obtained after three to seven days. Crystals of TB19 (discussed below) grown with HbA incubated and reduced under deoxygenated conditions was also used for data collection.
X-ray diffraction data for the MS2 complex (discussed below) was collected using a Rigaku AFC5R rotating anode diffractometer to a resolution of 4Å. All hk±1 reflections and their Friedel pairs were collected. One crystal, dimensions 0.3 to 1.2 mm was used for collection. Diffraction data for the rest of the complexes were collected with a Rigaku AFC5R rotating anode diffractometer equipped with an R-axis IIC image plate system, all to a resolution of 1.94A. Crystals of linear dimensions 0.2 to 0.5 mm were used. Data reduction, structure solution and calculation of Fourier difference electron-density maps were as described in Wireko et al., Proc. Natl. Acad. Sci. USA, 1991, 88, 2209.
Models of the compounds created with MMOD and minimized with MM2 force field were fitted to the electron-density by using FRODO on an EVANS and SUTHERLAND PS390 graphic station.
X-ray diffraction analyses were used to study several of the new drug complexes including MS1, MS2, TB8, TB10, TB17, TB19, TB32, TB36, TB62, and TB63. The difference electron-density maps of all complexes discussed are that of the HbA tetramer/drug molar ratio of 1:5, except TB17 which is 1:10. All drug molecules contain at least two functionalities, an aldehyde and a carboxylate, common to all of them. […] The only exception was MS2 where only one of the carboxylate oxygens was involved in the salt bridge interaction. The above binding site, which is common to all of the complexes, will be referred to as the α-cleft binding site. Some of the above drug compounds have additional functional groups which are also involved in additional interaction with other HbA residues, including hydrogen bonding, van der Waals interaction, and a second covalent bonding.
All complexes have two molecules of the drug compounds bound at the above-mentioned α-cleft site and are related by the two fold noncrystallographic axis. These sites are further noted as the α1-cleft site (Val-1α1 binding site), and the α2-cleft site (Val-1α2 binding site). In all complexes, the electron density at the α2-cleft site were slightly bigger and better defined than the electron density at the α1-cleft site. In addition to the binding at the α-cleft site, some of the drug compounds also bind to other secondary sites, including other sites in the α-cleft water cavity, the β-cleft water cavity located at Val-1β, and the Hb polymer contact site located near the residues His-116β and His-117β.

whole blood = test: Whole-blood studies: effect on the oxygen affinity of whole blood; format: cell-based; settings: for P50 D (aver.): heparinized whole blood mixed 1:1 with test compound solution, equilibrated 1 hour at 37° C., P50 C 25.0; for direction of shift of the oxygen equilibrium curve / ΔP50 D: whole blood; for ΔP50 D: 1 hour at 37° C., P50 D - P50 C

Row | Molecule | P50 D (aver.) (human hemoglobin (HbA)) | ΔP50 (P50 D - P50 C) (human hemoglobin (HbA)) | binding sites in HbA seen in the difference electron-density map (HbA) | direction of shift of the oxygen equilibrium curve (human hemoglobin (HbA)) | P50 D (aver.) (whole blood) | direction of shift of the oxygen equilibrium curve (whole blood) | ΔP50 D (whole blood)
1 | 2-phenylethyloxy-5-formylbenzoic acid [TB32] | 18.0 mm Hg | -2.0 mm Hg |  |  |  |  | 
2 | O=Cc1ccc(O)c(C(=O)O)c1 [MS1, 5-formylsalicyclic acid] | 21.0 mm Hg | 1.0 mm Hg | four binding sites for MS1 in the central water cavity of HbA |  |  |  | 
3 | O=Cc1ccc(C(=O)O)cc1 [MS2, 4-carboxybenzaldehyde] | 21.0 mm Hg | 2.0 mm Hg | binding exclusively at the two symmetry-related α-cleft sites |  |  |  | 
4 | O=Cc1ccc(OCc2ccccc2COc2ccc(C=O)cc2C(=O)O)c(C(=O)O)c1 [TB5, α, α'-bis(2-carboxy-4-formylphenoxy)-o-xylene] | 31.0 mm Hg | 9.5 mm Hg |  |  |  |  | 
5 | CC(=O)Oc1ccc(C=O)cc1C(=O)O [TB8, 5-formylaspirin] | 21.0 mm Hg | -1.0 mm Hg | binding of TB8 at the two symmetry-related α-cleft sites of Val-1α |  |  |  | 
6 | O=Cc1ccc(OCc2cccc(COc3ccc(C=O)cc3C(=O)O)c2)c(C(=O)O)c1 [TB10, α,α'bis(2-carboxy-4-formylphenoxy)-m-xylene] | 26.0 mm Hg | 4.5 mm Hg |  |  |  |  | 
7 | O=Cc1ccc(OCc2ccc(COc3ccc(C=O)cc3C(=O)O)cc2)c(C(=O)O)c1 [TB11, α,α'bis(2-carboxy-4-formylphenoxy)-p-xylene] | 24.0 mm Hg | 2.5 mm Hg |  |  |  |  | 
8 | O=Cc1ccc(OCc2ccccc2)c(C(=O)O)c1 [TB17, 2-benzyloxy-5-formylbenzoic acid] |  |  | three molecules of TB17 reacted to the Hb tetramer | right shift | 14.5 mm Hg | left shift | -9.5 mm Hg
9 | O=Cc1ccc(OCC=CCOc2ccc(C=O)cc2C(=O)O)c(C(=O)O)c1 [TB18, 1,4-bis(2-carboxy-4-formylphenoxy)-2-butene] | 40.0 mm Hg | 18.0 mm Hg |  | right shift | 19.0 mm Hg | left shift | -6.0 mm Hg
10 | O=Cc1ccc(OCc2ccc(C(=O)O)cc2)c(C(=O)O)c1 [TB34, α-(2-carboxy-4-formylphenoxy)-p-toluic acid] | 14.0 mm Hg | -6.0 mm Hg |  |  |  |  | 
11 | O=Cc1ccc(OCCCCOc2ccc(C(=O)O)cc2)c(C(=O)O)c1 [TB35] | 25 mm Hg | 4 mm Hg |  |  |  |  | 
12 | O=Cc1ccc(OCCCOc2ccc(C=O)cc2C(=O)O)c(C(=O)O)c1 [TB36, 1,3-bis(2-carboxy-4-formylphenoxy)-propane] | 44.0 mm Hg | 22.0 mm Hg | binding exclusively at the two symmetry-related α-cleft sites |  |  |  | 
13 | O=Cc1ccc(OC(=O)/C=C/C(=O)Oc2ccc(C=O)cc2C(=O)O)c(C(=O)O)c1 [TB40, bis(2-carboxy-4-formylphenyl)-fumerate] | 14.0 mm Hg | -6.0 mm Hg |  |  |  |  | 
14 | O=Cc1ccc(OCCCCCCOc2ccc(C=O)cc2C(=O)O)c(C(=O)O)c1 [TB42, 1,6-bis(2-carboxy-4-formylphenoxy)-hexane] | 39.0 mm Hg | 17.0 mm Hg |  |  |  |  | 
15 | O=Cc1ccc(OC(=O)c2ccc(C(=O)Oc3ccc(C=O)cc3C(=O)O)cc2)c(C(=O)O)c1 [TB56, bis(2-carboxy-4-formylphenyl)-terephthalate] | 16.0 mm Hg | -4.0 mm Hg |  |  |  |  | 
16 | O=Cc1ccc(OCCCCCOc2ccc(C=O)cc2C(=O)O)c(C(=O)O)c1 [TB57, 1,5-bis(2-carboxy-4-formylphenoxy)-pentane] | 33.0 mm Hg | 11.0 mm Hg |  |  |  |  | 
17 | O=Cc1ccc(OCCCCCCCCOc2ccc(C=O)cc2C(=O)O)c(C(=O)O)c1 [TB58, 1,8-bis(2-carboxy-4-formylphenoxy)-octane] | 37.0 mm Hg | 15.0 mm Hg |  |  |  |  | 
18 | O=Cc1ccc(OCOc2ccc(C=O)cc2C(=O)O)c(C(=O)O)c1 [TB62/45, bis(2-carboxy-4-formylphenoxy)-methane] | 51.0 mm Hg | 29.0 mm Hg | binding exclusively at the two symmetry-related α-cleft sites |  |  |  | 
19 | O=Cc1ccc(OCCOc2ccc(C=O)cc2C(=O)O)c(C(=O)O)c1 [TB63/41, 1,2-Bis(2-Carboxy-4-formylphenoxy)-ethane] | 46.0 mm Hg | 24.0 mm Hg | binding exclusively at the two symmetry-related α-cleft sites |  |  |  | 
20 | CC(CCCOc1ccc(C=O)cc1C(=O)O)Oc1ccc(C=O)cc1C(=O)O (centres unmarked) [TB72, 1,4-bis(2-carboxy-4-formylphenoxy)-pentane] | 30.0 mm Hg | 8.0 mm Hg |  |  |  |  | 
21 | O=Cc1ccc(OCCCCCCCCCCOc2ccc(C=O)cc2C(=O)O)c(C(=O)O)c1 [TB73, 1,10-bis(2-carboxy-4-formylphenoxy)-decane] | 33.0 mm Hg | 11.0 mm Hg |  |  |  |  | 
22 | O=Cc1ccc(OC(=O)C(=O)Oc2ccc(C=O)cc2C(=O)O)c(C(=O)O)c1 [TB77, bis(2-carboxy-4-formylphenyl)-oxalate] | 19.5 mm Hg | -1.5 mm Hg |  |  |  |  | 
23 | O=Cc1ccc(OC(=O)CCC(=O)Oc2ccc(C=O)cc2C(=O)O)c(C(=O)O)c1 [TB80, bis(2-carboxy-4-formylphenyl)-succinate] | 14.5 mm Hg | -5.5 mm Hg |  |  |  |  | 
